Reference: patent US20150272939A1, “Identification of Small Molecule Inhibitors of Jumonji AT-Rich Interactive Domain 1A (JARID1A) and 1B (JARID1B) Histone Demethylase” (Yale University, priority 2012, published 2015)
Where a name gives a salt, the structure may show the parent alone. Read-outs that look alike come from different tables or passages of the source.

Key:
[1] = target: T1, JARID1B (Homo sapiens, UniProt Q9UGL1); experiment: FLAG-JARID1B histone demethylase assay with AlphaScreen detection (HTS and dose response); format: biochemical; details: for Assay − Artifact Signal (percent): assay signal minus artifact signal; for inhibition at 20 µM: read-out: Inhibitory effect (percent); for Assay Signal (percent) / Validation result of HTS active: effect of the compound in the JARID1B AlphaScreen demethylase assay: validation of HTS actives; for Assay Signal (percent): effect of compound in JARID1B AlphaScreen assay; for Validation result of HTS active: effect of the compound in the JARID1B AlphaScreen demethylase assay: total signal before subtraction of artifact signal;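 as to Assay Signal (percent): compound tested at 20 µM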;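 as to Assay − Artifact Signal (percent): compound tested at 20 µM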;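 as to all read-outs here: FLAG-tagged JARID1B at 4 nM acting on a biotinylated H3K4me3 peptide, demethylation read by AlphaScreen luminescence, with hits checked against bio-H3K4me2 without enzyme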
T1 construct: The FLAG tagged full length JARID1B enzyme was expressed in Sf21 insect cells using FLAG-JARID1B baculoviruses; FLAG (N); made in house; host or cells: Sf21 insect cells (baculovirus)
T1 sequence (Q9UGL1 whole entry): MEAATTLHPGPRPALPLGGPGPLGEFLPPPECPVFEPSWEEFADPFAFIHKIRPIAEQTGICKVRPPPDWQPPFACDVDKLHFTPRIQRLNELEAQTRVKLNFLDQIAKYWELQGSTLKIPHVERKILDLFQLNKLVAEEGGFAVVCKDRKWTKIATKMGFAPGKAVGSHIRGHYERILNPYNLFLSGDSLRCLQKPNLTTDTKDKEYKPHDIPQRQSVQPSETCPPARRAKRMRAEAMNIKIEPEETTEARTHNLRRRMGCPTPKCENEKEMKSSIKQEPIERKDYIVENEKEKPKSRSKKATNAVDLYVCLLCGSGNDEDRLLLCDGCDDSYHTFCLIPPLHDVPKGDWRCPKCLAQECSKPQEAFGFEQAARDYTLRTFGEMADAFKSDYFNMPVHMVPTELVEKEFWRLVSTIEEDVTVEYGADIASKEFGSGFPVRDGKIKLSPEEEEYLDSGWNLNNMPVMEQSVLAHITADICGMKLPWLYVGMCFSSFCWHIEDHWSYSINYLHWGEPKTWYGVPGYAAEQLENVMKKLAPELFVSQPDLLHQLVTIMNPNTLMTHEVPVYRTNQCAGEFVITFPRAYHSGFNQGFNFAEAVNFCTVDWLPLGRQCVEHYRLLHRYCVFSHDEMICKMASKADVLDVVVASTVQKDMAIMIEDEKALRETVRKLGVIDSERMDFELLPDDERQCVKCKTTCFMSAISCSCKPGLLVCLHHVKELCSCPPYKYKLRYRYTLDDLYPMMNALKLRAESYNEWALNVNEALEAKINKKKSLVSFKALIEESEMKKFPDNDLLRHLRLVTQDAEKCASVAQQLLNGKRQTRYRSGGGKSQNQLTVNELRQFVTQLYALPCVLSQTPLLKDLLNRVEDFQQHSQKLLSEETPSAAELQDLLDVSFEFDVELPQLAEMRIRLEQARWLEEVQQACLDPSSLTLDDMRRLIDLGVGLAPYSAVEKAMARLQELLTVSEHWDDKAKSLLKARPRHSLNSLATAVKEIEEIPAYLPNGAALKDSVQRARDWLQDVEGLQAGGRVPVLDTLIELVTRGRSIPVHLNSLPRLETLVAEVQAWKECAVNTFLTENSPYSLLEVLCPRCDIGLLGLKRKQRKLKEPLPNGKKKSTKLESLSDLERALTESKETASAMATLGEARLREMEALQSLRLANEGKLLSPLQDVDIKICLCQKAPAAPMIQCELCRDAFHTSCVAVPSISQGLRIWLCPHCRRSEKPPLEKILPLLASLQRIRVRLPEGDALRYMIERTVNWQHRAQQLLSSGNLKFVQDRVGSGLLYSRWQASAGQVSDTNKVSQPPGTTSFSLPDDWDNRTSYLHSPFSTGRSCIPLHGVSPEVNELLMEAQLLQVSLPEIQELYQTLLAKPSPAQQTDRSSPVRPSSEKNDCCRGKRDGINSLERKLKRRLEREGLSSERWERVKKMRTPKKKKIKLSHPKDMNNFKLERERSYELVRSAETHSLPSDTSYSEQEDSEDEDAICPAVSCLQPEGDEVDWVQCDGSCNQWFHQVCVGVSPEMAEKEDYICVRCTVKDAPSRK

[2] = AlphaScreen counterscreen against bio-H3K4me2 peptide in the absence of enzyme (artifact signal); details: for Artifact Signal (percent): effect of the compound when incubated with bio-H3K4me2 peptide (counterscreen, no enzyme); for Artifact signal: effect of the compound when it is incubated with bio-H3K4me2 peptide: counterscreen, no enzyme;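 as to all read-outs here: counterscreen run without enzyme against bio-H3K4me2 peptide to remove false positive hits from the JARID1 demethylase AlphaScreen screen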
[3] = high-throughput screen, compound 20 μM, standard demethylase conditions (10 μM α-KG, 50 μM Fe (II))

| Assay − Artifact Signal (percent) [1] [%] | inhibition at 20 µM [1, 3] [%] | Assay Signal (percent) [1] [%] | Artifact Signal (percent) [2] [%] | SMILES | other results |
| --- | --- | --- | --- | --- | --- |
| 52.50 | 70.6 | 73.96 | 21.46 | NC(CO)C(=O)NNCc1ccc(O)c(O)c1O (stereo not shown) [YU033702, BENSERAZIDE HYDROCHLORIDE, reference compound] |  |
| 9.91 | 68.2 | 6.99 | −2.92 | N#Cc1c(O)nc(S)nc1-c1ccccc1 [YU145521] |  |
|  | 93.2 |  |  | COc1ccccc1OCC(O)COC(N)=O (stereo not shown) [YU033898, METHOCARBAMOL, reference compound] | Validation result of HTS active: effect of the compound in the JARID1B AlphaScreen demethylase assay [1]: 0.74; Artifact signal: effect of the compound when it is incubated with bio-H3K4me2 peptide [2]: 18.66 |
| 57.15 | 103 | 99.57 | 42.41 | COCc1cc(O)c(O)c(O)c1-c1c(COC)cc(O)c(O)c1O [YU154887, 2,2,3,3,4,4- HEXAHYDROXY-1,1- BIPHENYL-6,6- DIMETHANOL DIMETHYL ETHER, reference compound] |  |
| 42.61 | 46.4 | 46.26 | 3.65 | O=C(O)c1cc(NCc2cc(O)ccc2O)ccc1O [YU154859, 2-HYDROXY-5-(2,5- DIHYDROXYBENZYL- AMINO)BENZOIC ACID, reference compound] |  |
|  | 66 |  |  | CN(C)CCCN1c2ccccc2Sc2ccc(C(F)(F)F)cc21 [YU034370, TRIFLUPROMAZINE HYDROCHLORIDE, reference compound] | Validation result of HTS active: effect of the compound in the JARID1B AlphaScreen demethylase assay [1]: 4.23; Artifact signal: effect of the compound when it is incubated with bio-H3K4me2 peptide [2]: −2.95 |
|  | 44 |  |  | Cn1cc(C2=C(c3cn(CCCSC(=N)N)c4ccccc34)C(=O)NC2=O)c2ccccc21 [YU154853, Ro 31-8220, reference compound] | Validation result of HTS active: effect of the compound in the JARID1B AlphaScreen demethylase assay [1]: 41.07; Artifact signal: effect of the compound when it is incubated with bio-H3K4me2 peptide [2]: 38.79 |
|  | 42.4 |  |  | CC(NC(=O)c1ccco1)c1ccncc1 (stereo not shown) [YU145239] | Validation result of HTS active: effect of the compound in the JARID1B AlphaScreen demethylase assay [1]: 7.68; Artifact signal: effect of the compound when it is incubated with bio-H3K4me2 peptide [2]: 0.21 |
| 35.74 | 30.4 | 38.72 | 2.98 | C=CCn1c(-c2cccc(OC)c2OC)n[nH]c1=S [YU148159] |  |
|  | 48.1 |  |  | c1cc2c(cc1CNc1ccc(N3CCCC3)cc1)OCO2 [YU149834] | Validation result of HTS active: effect of the compound in the JARID1B AlphaScreen demethylase assay [1]: 28.52; Artifact signal: effect of the compound when it is incubated with bio-H3K4me2 peptide [2]: 27.95 |
| 13.21 | 47.5 | 31.65 | 18.44 | CCOc1cccc(CNc2ccc(N3CCCC3)cc2)c1 [YU149839] |  |
| 21.66 | 40.5 | 14.67 | −6.99 | c1ccc(-c2nn3c(Cn4cnc5ccccc54)nnc3s2)cc1 [YU153935] |  |
| 23.33 | 58.7 | 30.40 | 7.07 | O=C1C=CC(=O)[C@@H](Br)[C@@H]1Br [YU221139] |  |
|  | 32.1 |  |  | O=c1c2c(-c3ccc(Cl)cc3)csc2nc2n1CCC2 [YU150472] | Validation result of HTS active: effect of the compound in the JARID1B AlphaScreen demethylase assay [1]: 4.75; Artifact signal: effect of the compound when it is incubated with bio-H3K4me2 peptide [2]: −2.52 |
|  | 39.4 |  |  | Cc1ccc(NC(=O)CC2SC3=NCCCN3C2=O)c(C)c1 (stereo not shown) [YU152183] | Validation result of HTS active: effect of the compound in the JARID1B AlphaScreen demethylase assay [1]: 6.95; Artifact signal: effect of the compound when it is incubated with bio-H3K4me2 peptide [2]: 1.46 |
| 41.83 | 44.9 | 51.29 | 9.46 | O=c1c(O[C@@H]2O[C@H](CO)[C@H](O)[C@H](O)[C@H]2O)c(-c2ccc(O)c(O)c2)oc2cc(O)cc(O)c12 [YU221013, HYPEROSIDE, reference compound] |  |
| 13.49 | 60.4 | 60.81 | 47.32 | O=c1c(O)cc([C@H]2Oc3cc(O)cc(O)c3C[C@H]2O)cc2c([C@H]3Oc4cc(O)cc(O)c4C[C@H]3O)cc(O)c(O)c12 [YU155003, THEAFLAVIN, reference compound] |  |
| 47.54 | 56.3 | 40.90 | −6.64 | CNC[C@H](O)c1ccc(O)c(O)c1 [YU033809, ADRENALINE BITARTRATE, reference compound] |  |
| 40.83 | 34.8 | 33.04 | −7.79 | CC(O)Cc1nnc(S)n1-c1ccccc1 (stereo not shown) [YU145796] |  |
|  |  |  | 0.79 | Cc1ccccc1C(OCCN(C)C)c1ccccc1 (stereo not shown) [YU033938, ORPHENADRINE CITRATE, reference compound] |  |
|  |  |  | 4.88 | CC[C@H]1OC(=O)[C@H](C)[C@@H](OC2CC(C)(OC)C(O)C(C)O2)[C@H](C)[C@@H](S2(C)(=O)NC3C(N(C)C)CC(C)NC32)[C@](C)(O)C[C@@H](C)/C(=N\C)[C@H](C)[C@@H](O)[C@]1(C)O (stereo partly shown) [YU035181] |  |

Further lines, the compound ahead of its results:

| SMILES | Assay − Artifact Signal (percent) [1] [%] | inhibition at 20 µM [1, 3] [%] | Assay Signal (percent) [1] [%] | Artifact Signal (percent) [2] [%] | other results |
| --- | --- | --- | --- | --- | --- |
| CC(=O)[O][Hg][c]1ccccc1 [YU034074, PHEN[…], ACETATE, reference compound] |  |  |  |  | Artifact signal: effect of the compound when it is incubated with bio-H3K4me2 peptide [2]: −10.79 |
| COC(=O)c1cc(Br)c(OCc2ccccc2)c(CO[Si](C(C)(C)C)(C(C)(C)C)C(C)(C)C)c1OCc1ccccc1 [YU221143] | 26.59 | 40.9 | 22.60 | −3.99 |  |
| CCC(=O)Nc1ccc(N2CCCC2)c(C(=O)O)c1 [YU208199] | 17.19 | 63.4 | 50.16 | 32.96 |  |
| N#CC(=Cc1ccncc1)c1nc2cc(C(F)(F)F)ccc2s1 (single isomer, unassigned) [YU153803] | 99.03 | 90.8 | 93.75 | −5.27 |  |
| c1ccc(-c2nc3ccccn3c2Nc2ccc3c(c2)OCCO3)nc1 [YU172999] | 88.40 | 96.7 | 98.42 | 10.03 |  |
| CCCSc1nc2c3c(sc2c(=O)[nH]1)CC(C)(CC)OC3 (stereo not shown) [YU153031] | 9.19 | 97 | 9.27 | 0.09 |  |
| Clc1ccc2nc(-c3ccccn3)c(Nc3ccc4c(c3)OCCO4)n2c1 [YU173004] | 48.80 | 94 | 49.67 | 0.87 |  |
| O=c1c(O)c(-c2ccc(O)c(O)c2)oc2cc(O)ccc12 [YU155255, FISETIN, reference compound] | 22.49 | 45.8 | 91.26 | 68.78 |  |
| Cc1cc2c(C(C)C)c(O)c(O)c(C=O)c2c(O)c1-c1c(C)cc2c(C(C)C)c(O)c(O)c(C=O)c2c1O [YU034280, GOSSYPOL-ACETIC ACID COMPLEX, reference compound] |  | 78.2 |  |  | Validation result of HTS active: effect of the compound in the JARID1B AlphaScreen demethylase assay [1]: 54.61; Artifact signal: effect of the compound when it is incubated with bio-H3K4me2 peptide [2]: 64.46 |
| CNCCCOc1ccc(OCc2ccccc2)cc1 [YU147640] |  | 39.1 |  |  | Validation result of HTS active: effect of the compound in the JARID1B AlphaScreen demethylase assay [1]: 5.15; Artifact signal: effect of the compound when it is incubated with bio-H3K4me2 peptide [2]: −2.82 |
| CCOc1cc(CN)cc(Cl)c1OCC.Cl [YU147266] | 69.10 | 68.6 | 69.21 | 0.11 |  |
| O=c1ccc2cc(O)c(O)cc2o1 [YU155534, ESCULETIN, reference compound] |  |  |  | 6.30 |  |
| C[CH2][Hg][S]c1ccccc1C(=O)[O-] [YU034023, THIMEROSAL, reference compound] |  |  |  |  | Artifact signal: effect of the compound when it is incubated with bio-H3K4me2 peptide [2]: −5.81 |
| O=C(O[C@@H]1Cc2c(O)cc(O)cc2O[C@@H]1c1ccc(O)c(O)c1)c1cc(O)c(O)c(O)c1 [YU155085, EPICATECHIN MONOGALLATE, reference compound] |  | 99.5 |  |  |  |
| Cn1nnnc1SCC1=C(C(=O)O)N2C(=O)[C@H](NC(=O)C(O)c3ccccc3)C2SC1 (stereo in doubt) [YU034265, CEFAMANDOLE SODIUM, reference compound] |  |  |  |  | inhibition at 20 µM ([1]; high-throughput screen, compound 20 μM, IDs marked *: additional hits under reaction condition with 1 mM α-KG): 40.5% |
| CC(=O)O[C@H]1C[C@@]2(C)[C@@H](C[C@@H](O)[C@H]3[C@@]4(C)CC[C@@H](O)[C@@H](C)[C@@H]4CC[C@@]32C)/C1=C(\CCC=C(C)C)C(=O)O [YU033837, FUSIDIC ACID, reference compound] |  | 63.1 |  |  | Validation result of HTS active: effect of the compound in the JARID1B AlphaScreen demethylase assay [1]: 0.93 |
| N#C/C(=C\c1ccncc1)c1nc2cc(C(F)(F)F)ccc2s1 [ChemBridge 7812182] |  |  |  |  | IC50 ([1]; dose response at 15 μM (low) Fe (II), read-out: IC50 (μM) low Fe (II)): 1.66 µM; IC50 ([1]; dose response at 50 μM (high) Fe (II), read-out: IC50 (μM) high Fe (II)): 1.15 µM |
| OC1CCCCC1N1CCC(c2ccccc2)CC1 (stereo not shown) [YU034447, VESAMICOL HYDROCHLORIDE, reference compound] | 8.85 |  | 8.67 |  | inhibition at 20 µM [1]: 40.5% |
